# Reference: US20260274892A1, “MACROCYCLIC BROAD SPECTRUM ANTIBIOTICS” (RQx Pharmaceuticals, Inc., priority 2017, published 2026)
# What was measured:
# [1] = test system: Methicillin Resistant Staphylococcus aureus strain USA 200; assay: Minimum inhibitory concentration (MIC), CLSI broth micro-dilution, S. aureus; format: cell-based; conditions: Staphylococcus aureus, MRSA / USA200, MRSA USA 200, cation adjusted Mueller Hinton Broth + 0.002% Tween-80, 35° C., 22 hours
# In short: (§1)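 Colonies grown 20 h at 35° C on Trypticase Soy agar (MRSA) or Luria agar (E. coli) were suspended in cation-adjusted Mueller Hinton broth with 0.002% Tween-80. Suspensions were added at OD600 0.0005 to 10-point twofold compound dilutions, then incubated 22 h at 35° C.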
# [2] = test system: Escherichia coli ATCC 25922; assay: Minimum inhibitory concentration (MIC), CLSI broth micro-dilution, E. coli; format: cell-based; conditions: Escherichia coli, ATCC25922, 22 h
# In short: as §1
# [3] = Table 6, cation adjusted Mueller Hinton Broth + 0.002% Tween-80, 35° C.
MIC ([1]; Table 6) [µM],"MIC [2, 3] [µM]",MIC ([1]; Table 8) [µM],"MIC ([2]; Table 8, cation adjusted Mueller Hinton Broth + 0.002% Tween-80, 35° C.) [µM]",SMILES
0.26,3.2,,,"Cc1nc(-c2ccc(C(C)(C)C)cc2)ncc1C(=O)N[C@@H](CCN)C(=O)N(C)[C@@H]1C(=O)N[C@@H](CO)C(=O)N[C@H](C(=O)NCC#N)Cc2ccc(OCCN)c(c2)-c2cc1ccc2OCCN (racemic) [Compound 477, rac-(8S,11S,14S)-3,18-bis(2-aminoethoxy)-N-(cyanomethyl)-11-(hydroxymethyl)-14-[methyl-[rac-(2S)-4-amino-2-[[2-(4-tert-butylphenyl)-4-methyl-pyrimidine-5-carbonyl]amino]butanoyl]amino]-10,13-dioxo-9,12-diazatricyclo[13.3.1.12,6]icosa-1(18),2(20),3,5,15(19),16-hexaene-8-carboxamide]"
0.023,1.5,,,"Cc1nc(C(C)(C)c2ccc(C(C)(C)C)cc2)nc(C)c1C(=O)N[C@@H](CCN)C(=O)N(C)[C@@H]1C(=O)N[C@@H](C)C(=O)N[C@H](C(=O)NCC#N)Cc2ccc(OCCN)c(c2)-c2cc1ccc2OCCN (racemic) [Compound 288, rac-(8S,11S,14S)-3,18-bis(2-aminoethoxy)-N-(cyanomethyl)-11-methyl-14-[methyl-[rac-(2S)-4-amino-2-[[2-[1-(4-tert-butylphenyl)-1-methyl-ethyl]-4,6-dimethyl-pyrimidine-5-carbonyl]amino]butanoyl]amino]-10,13-dioxo-9,12-diazatricyclo[13.3.1.12,6]icosa-1(18),2(20),3,5,15(19),16-hexaene-8-carboxamide]"
,,1.2,0.58,"Cc1cc(-c2ccc(C(C)(C)C)cc2)nc(C)c1C(=O)N[C@@H](CCN)C(=O)N(C)[C@@H]1C(=O)N[C@@H](C)C(=O)N[C@H](C(=O)O)Cc2ccc(O)c(c2)-c2cc1ccc2OCCN (racemic) [Compound 644, rac-(8S,11S,14S)-18-(2-aminoethoxy)-3-hydroxy-11-methyl-14-[methyl-[rac-(2S)-4-amino-2-[[6-(4-tert-butylphenyl)-2,4-dimethyl-pyridine-3-carbonyl]amino]butanoyl]amino]-10,13-dioxo-9,12-diazatricyclo [13.3.1.12,6]icosa-1(18),2(20),3,5,15(19), 16-hexaene-8-carboxylic acid]"
0.031,0.5,,,"CCCCc1ccc(Oc2ccc(C(=O)N[C@@H](CCN)C(=O)N(C)[C@@H]3C(=O)N[C@@H](C)C(=O)N[C@H](C(=O)NCC#N)Cc4ccc(OCCN)c(c4)-c4cc3ccc4OCCN)c(Cl)c2)cc1 (racemic) [Compound 377, rac-(8S,11S,14S)-3,18-bis(2-aminoethoxy)-N-(cyanomethyl)-11-methyl-14-[methyl-[rac-(2S)-4-amino-2-[[4-(4-butylphenoxy)-2-chloro-benzoyl]amino]butanoyl]amino]-10,13-dioxo-9,12-diazatricyclo[13.3.1.12,6]icosa-1(18),2(20),3,5,15(19),16-hexaene-8-carboxamide]"
0.047,0.13,,,"Cc1nc(-c2ccc(N3CCCCC3)cc2)nc(C)c1C(=O)N[C@@H](CCN)C(=O)N(C)[C@@H]1C(=O)N[C@@H](C)C(=O)N[C@H](C(=O)NCC#N)Cc2ccc(OCCN)c(c2)-c2cc1ccc2OCCN (racemic) [Compound 324, rac-(8S,11S,14S)-3,18-bis(2-aminoethoxy)-N-(cyanomethyl)-11-methyl-14-[methyl-[rac-(2S)-4-amino-2-[[4,6-dimethyl-2-[4-(1-piperidyl)phenyl]pyrimidine-5-carbonyl]amino]butanoyl]amino]-10,13-dioxo-9,12-diazatricyclo[13.3.1.12,6]icosa-1(18),2(20),3,5,15(19),16-hexaene-8-carboxamide]"
